Data set [1] concerns human red blood cells (hRBC). The experiment in a line: Hemolysis. Type of data set: cell-based. The procedure, abridged:
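Washed fresh human erythrocytes (20% v/v, about 0.9×10^9 cells/ml final) incubated with peptide at 100 μM for 1 h at 37° C. Supernatant diluted 20-fold and OD540 read. Percent hemolysis relative to 0.1% Triton X-100 in H2O (100%), with PBS alone as 0%.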

A further data set can be described thus: in vitro. As to conditions: human.
Another data set addresses CXCR4 (Homo sapiens, UniProt P61073). The data set can be described thus: Ca2+-assay method 2 (Flexstation, SDF-1 induced calcium mobilization). Type of data set: cell-based. Further details: expressed in transfected cells; host or cells: mouse pre-B cell line 300-19. The following applies: method 2 (Ex. 54-160), mouse pre-B cell line 300-19 with human CXCR4, 10 nM SDF-1; read-out: IC50 (nM) Ca^2+ assay. For orientation: Calcium assays in cells follow changes in intracellular calcium, usually with a dye or a luminescent sensor.

Broadly, the GI50 is the concentration giving 50% growth inhibition. Read a low GI50 as greater sensitivity of the cells. The IC50 is the concentration that inhibits the measured activity by half.

Bridge positions count the residues as written; N and C are the ends. Square brackets hold non-standard residues; d marks the D form. Peptide text beside a SMILES is read from it. 2Nal = N[C@@H](Cc1ccc2ccccc2c1)C(=O)O; Cit = NC(=O)NCCC[C@H](N)C(=O)O
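Wherever GI50 is given: MTT reduction read as absorbance at 595 nm, blank-corrected and expressed as percent growth relative to the time-zero cell reading, triplicate wells per concentration.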

CXCR4, sequence (P61073 whole entry): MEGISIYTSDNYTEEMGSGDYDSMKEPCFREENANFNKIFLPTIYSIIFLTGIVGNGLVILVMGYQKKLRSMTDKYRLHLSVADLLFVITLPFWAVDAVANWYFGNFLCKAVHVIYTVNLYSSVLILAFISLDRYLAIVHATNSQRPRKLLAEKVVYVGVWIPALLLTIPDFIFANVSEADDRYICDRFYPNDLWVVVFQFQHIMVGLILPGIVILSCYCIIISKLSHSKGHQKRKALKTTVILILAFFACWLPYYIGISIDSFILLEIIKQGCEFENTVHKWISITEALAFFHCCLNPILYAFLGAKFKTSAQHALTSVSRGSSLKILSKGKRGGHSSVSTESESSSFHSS

On to `N=C(N)NCCC[C@@H]1NC(=O)[C@@H]2CSSC[C@H](NC(=O)[C@H](Cc3c[nH]c4ccccc34)NC(=O)[C@H](CCCNC(=N)N)NC(=O)[C@H](CCCNC(=N)N)NC(=O)[C@H]3CCCN3C(=O)CNC1=O)C(=O)N[C@@H](Cc1ccc(O)cc1)C(=O)N[C@@H](CCCNC(N)=O)C(=O)N[C@@H](CCCCN)C(=O)N1CCC[C@@H]1C(=O)N1CCC[C@H]1C(=O)N[C@@H](Cc1ccccc1)C(=O)N[C@@H](CCCNC(=N)N)C(=O)N[C@@H](CCCNC(N)=O)C(=O)N2` [Ex. 107] (cyclo(FR[Cit]CRG[dP]RRWCY[Cit]K[dP]P); disulfide 4-11), for which the Hemolysis at 100 μM in data set [1] came out at 0.4%. For the same compound, the GI50 at 48 h in “in vitro” was determined as 50 µM. For the same compound, the IC50 on CXCR4 is 3.8 nM.

`N=C(N)NCCC[C@@H]1NC(=O)[C@@H]2CSSC[C@H](NC(=O)[C@H](Cc3ccc4ccccc4c3)NC(=O)[C@H](CCCNC(=N)N)NC(=O)[C@H](Cc3ccc(O)cc3)NC(=O)[C@H]3CCCN3C(=O)CNC1=O)C(=O)N[C@@H](Cc1ccc(O)cc1)C(=O)N[C@@H](CCC(N)=O)C(=O)N[C@@H](CCCCN)C(=O)N1CCC[C@@H]1C(=O)N1CCC[C@H]1C(=O)N[C@@H](Cc1ccc(O)cc1)C(=O)N[C@@H](CCCNC(=N)N)C(=O)N[C@@H](CCCNC(N)=O)C(=O)N2` [Ex. 54] (cyclo(YR[Cit]CRG[dP]YR[2Nal]CYQK[dP]P); disulfide 4-11) displayed a Hemolysis at 100 μM in data set [1] of 0%. This compound displayed a GI50 at 48 h in “in vitro” of 54 µM. Also, the IC50 on CXCR4 stood at 6.9 nM.

The compound `C[C@@H](O)[C@@H]1NC(=O)[C@H](CCCNC(=N)N)NC(=O)[C@H](Cc2ccc(O)cc2)NC(=O)[C@@H]2CCCN2C(=O)[C@H]2CCCN2C(=O)[C@H](CCCCN)NC(=O)[C@H](CCCNC(N)=O)NC(=O)[C@H](Cc2ccc(O)cc2)NC(=O)[C@@H]2CSSC[C@H](NC1=O)C(=O)N[C@@H](CCCNC(=N)N)C(=O)NCC(=O)N1CCC[C@@H]1C(=O)N[C@@H](CCCNC(=N)N)C(=O)N[C@@H](CCCNC(=N)N)C(=O)N[C@@H](Cc1ccc3ccccc3c1)C(=O)N2` [Ex. 131] (cyclo(YRTCRG[dP]RR[2Nal]CY[Cit]K[dP]P); disulfide 4-11) registered a Hemolysis at 100 μM in data set [1] of 0%. Besides, in the data set “in vitro”, growth was halved (GI50 at 48 h) at 53 µM. Also, the IC50 at CXCR4 worked out at 2.4 nM.

In data set [1], `CSCC[C@@H]1NC(=O)[C@H](Cc2ccc(O)cc2)NC(=O)[C@@H]2CSSC[C@H](NC(=O)[C@H](CCCNC(N)=O)NC(=O)[C@H](CCCNC(=N)N)NC(=O)[C@H](Cc3ccc(O)cc3)NC(=O)[C@@H]3CCCN3C(=O)[C@H]3CCCN3C(=O)[C@H](CCCCN)NC1=O)C(=O)N[C@@H](CCCNC(=N)N)C(=O)NCC(=O)N1CCC[C@@H]1C(=O)N[C@@H](CCCNC(=N)N)C(=O)N[C@@H](CCCNC(=N)N)C(=O)N[C@@H](Cc1ccc3ccccc3c1)C(=O)N2` [Ex. 83] (cyclo(YR[Cit]CRG[dP]RR[2Nal]CYMK[dP]P); disulfide 4-11) had a Hemolysis at 100 μM of 0.1%. In addition, it took 48 µM to inhibit growth in the data set “in vitro” by half (GI50 at 48 h). Also, the IC50 on CXCR4 worked out at 3.7 nM.

Turning to `N=C(N)NCCC[C@@H]1NC(=O)[C@@H]2CSSC[C@H](NC(=O)[C@H](Cc3c[nH]c4ccccc34)NC(=O)[C@H](CCCNC(=N)N)NC(=O)[C@H](CCCNC(=N)N)NC(=O)[C@H]3CCCN3C(=O)CNC1=O)C(=O)N[C@@H](Cc1ccc(O)cc1)C(=O)N[C@@H](CCCNC(N)=O)C(=O)N[C@@H](CCCCN)C(=O)N1CCC[C@@H]1C(=O)N1CCC[C@H]1C(=O)N[C@@H](Cc1ccc(O)cc1)C(=O)N[C@@H](CCCCN)C(=O)N[C@@H](CCCNC(N)=O)C(=O)N2` [Ex. 106] (cyclo(YK[Cit]CRG[dP]RRWCY[Cit]K[dP]P); disulfide 4-11), the Hemolysis at 100 μM in data set [1] came to 0%. In the data set “in vitro”, this compound registered a GI50 at 48 h of 83 µM. On CXCR4, the IC50 turned out to be 3.1 nM.

Take `N=C(N)NCCC[C@@H]1NC(=O)[C@@H]2CSSC[C@H](NC(=O)[C@H](Cc3ccc(O)cc3)NC(=O)[C@H](CCCNC(=N)N)NC(=O)[C@H](CCCNC(=N)N)NC(=O)[C@H]3CCCN3C(=O)CNC1=O)C(=O)N[C@@H](Cc1ccc(O)cc1)C(=O)N[C@@H](CCC(N)=O)C(=O)N[C@@H](CCCCN)C(=O)N1CCC[C@@H]1C(=O)N1CCC[C@H]1C(=O)N[C@@H](Cc1ccc(O)cc1)C(=O)N[C@@H](CCCNC(=N)N)C(=O)N[C@@H](Cc1ccc(O)cc1)C(=O)N2` [Ex. 148] (cyclo(YRYCRG[dP]RRYCYQK[dP]P); disulfide 4-11): in data set [1], the Hemolysis at 100 μM is 71%. The same compound gave a GI50 at 48 h in the data set “in vitro” of 46 µM. Also, at CXCR4, the IC50 is 0.65 nM.

`C[C@@H]1NC(=O)[C@H](CCC(N)=O)NC(=O)[C@H](Cc2ccc(O)cc2)NC(=O)[C@@H]2CSSC[C@H](NC(=O)[C@H](CCCNC(N)=O)NC(=O)[C@H](CCCNC(=N)N)NC(=O)[C@H](Cc3ccc(O)cc3)NC(=O)[C@@H]3CCCN3C(=O)[C@H]3CCCN3C1=O)C(=O)N[C@@H](CCCNC(=N)N)C(=O)NCC(=O)N1CCC[C@@H]1C(=O)N[C@@H](CCCNC(=N)N)C(=O)N[C@@H](CCCNC(=N)N)C(=O)N[C@@H](Cc1ccc3ccccc3c1)C(=O)N2` [Ex. 86] (cyclo(YR[Cit]CRG[dP]RR[2Nal]CYQA[dP]P); disulfide 4-11) yielded a Hemolysis at 100 μM in data set [1] of 0%. In “in vitro”, this compound came in with a GI50 at 48 h of 62 µM. The IC50 at CXCR4 was 0.69 nM.

`CC(C)C[C@@H]1NC(=O)[C@H](CCCNC(=N)N)NC(=O)[C@H](Cc2ccc(O)cc2)NC(=O)[C@@H]2CCCN2C(=O)[C@H]2CCCN2C(=O)[C@H](CCCCN)NC(=O)[C@H](CCC(N)=O)NC(=O)[C@H](Cc2ccc(O)cc2)NC(=O)[C@@H]2CSSC[C@H](NC1=O)C(=O)N[C@@H](CCCNC(=N)N)C(=O)NCC(=O)N1CCC[C@@H]1C(=O)N[C@@H](CCCNC(=N)N)C(=O)N[C@@H](CCCNC(=N)N)C(=O)N[C@@H](Cc1ccc3ccccc3c1)C(=O)N2` [Ex. 97] (cyclo(YRLCRG[dP]RR[2Nal]CYQK[dP]P); disulfide 4-11): the Hemolysis at 100 μM in data set [1] turned out to be 0.8%. This compound also came in with a GI50 at 48 h in the data set “in vitro” of 44 µM. For the same compound, the IC50 on CXCR4 is 4.3 nM.

In turn, `N=C(N)NCCC[C@@H]1NC(=O)[C@@H]2CSSC[C@H](NC(=O)[C@H](Cc3ccc4ccccc4c3)NC(=O)[C@H](CCCNC(=N)N)NC(=O)[C@H](CCCNC(=N)N)NC(=O)[C@H]3CCCN3C(=O)CNC1=O)C(=O)N[C@@H](Cc1ccc(O)cc1)C(=O)N[C@@H](CCC(N)=O)C(=O)N[C@@H](CCCCN)C(=O)N1CCC[C@@H]1C(=O)N1CCC[C@H]1C(=O)N[C@@H](CCCNC(=N)N)C(=O)N[C@@H](CCCNC(=N)N)C(=O)N[C@@H](CCCNC(N)=O)C(=O)N2` [compound 63] (cyclo(RR[Cit]CRG[dP]RR[2Nal]CYQK[dP]P); disulfide 4-11) returned a Hemolysis at 100 μM in data set [1] of 0.2%. The compound further came in with a GI50 at 48 h in “in vitro” of 58 µM. For the same compound, the half-maximal inhibitory concentration (IC50) at CXCR4 was 2 nM.

Turning to `CSCC[C@@H]1NC(=O)[C@@H]2CCCN2C(=O)[C@H]2CCCN2C(=O)[C@H](CCCCN)NC(=O)[C@H](CCC(N)=O)NC(=O)[C@H](Cc2ccc(O)cc2)NC(=O)[C@@H]2CSSC[C@H](NC(=O)[C@H](CCCNC(N)=O)NC(=O)[C@H](CCCNC(=N)N)NC1=O)C(=O)N[C@@H](CCCNC(=N)N)C(=O)NCC(=O)N1CCC[C@@H]1C(=O)N[C@@H](CCCNC(=N)N)C(=O)N[C@@H](CCCNC(=N)N)C(=O)N[C@@H](Cc1ccc3ccccc3c1)C(=O)N2` [Ex. 91] (cyclo(MR[Cit]CRG[dP]RR[2Nal]CYQK[dP]P); disulfide 4-11), the Hemolysis at 100 μM in data set [1] was 0.2%. In the data set “in vitro”, this compound yielded a GI50 at 48 h of 48 µM. Moreover, on CXCR4, the IC50 worked out at 2.1 nM.

The values are drawn from patent US8895695B2, “Template-fixed beta-hairpin peptidomimetics with CXCR4 antagonizing activity” (priority 2003, dated 2014).
